Measurements reported in publication PMC6260965 (Structure (London, England : 1993), 2018).
Read-outs that look alike come from different tables or passages of the source.

Tests used:
[1] = tested on: GT3 double substitution variant Y56H/Q168R; settings: GT3 Y56H/Q168R selected in vitro; ref Ng et al., 2017; cited from earlier work
[2] = tested on: NS3/4A protease Y56H/D168A; assay: Enzyme inhibition assay, Y56H/D168A protease; type: biochemical, HCV; settings: for loss in potency in enzyme inhibition assays: Y56H/D168A relative to WT protease
NS3/4A protease D168A [3] = biological target: NS3/4A protease D168A (Hepatitis C virus genotype 1a, UniProt P27958, D1194A); assay: biochemical; type: biochemical, HCV
[4] = tested on: NS3/4A protease Y56H/D168A versus sum of Y56H and D168A; assay: Double mutant cycle analysis from inhibition constants; settings: calculated from measured Ki; negative coupling
[5] = tested on: HCV Con1 (genotype 1b) reporter replicon, H77 NS3 protease region with Y56H/D168A; assay: Cell-based drug susceptibility; settings: Y56H/D168A compared to WT
NS3/4A protease Y56H = NS3/4A protease Y56H (Hepatitis C virus genotype 1a, UniProt P27958, Y1082H); assay: Enzyme inhibition assay, Y56H protease; type: biochemical, HCV
[6] = biological target: NS3/4A protease Y56H/D168A (Hepatitis C virus genotype 1a, UniProt P27958, D1194A/Y1082H); assay: Enzyme inhibition assay, Y56H/D168A protease; type: biochemical, HCV
NS3/4A protease D168A [7] = assay: biochemical; type: biochemical, HCV; settings: D168A relative to WT protease
[8] = tested on: HCV Con1 (genotype 1b) reporter replicon, H77 NS3 protease region with D168A; assay: Cell-based drug susceptibility; settings: D168A compared to WT

Q: Which loss in potency [1] does the source give for CC(C)(C)[C@@H]1NC(=O)O[C@@H]2CCC[C@H]2OC/C=C/C(F)(F)c2nc3ccccc3nc2O[C@@H]2C[C@@H](C(=O)N[C@]3(C(=O)NS(=O)(=O)C4(C)CC4)C[C@H]3C(F)F)N(C2)C1=O [glecaprevir] here?
A: Its loss in potency is roughly 1400 fold.

Q: What does the source list for CCc1nc2ccc(OC)cc2nc1O[C@@H]1C[C@H]2C(=O)N[C@]3(C(=O)NS(=O)(=O)C4CC4)C[C@H]3/C=C\CCCCC[C@H](NC(=O)OC(C)(C)C)C(=O)N2C1 [5172-mcP1P3]?
A: loss in potency in enzyme inhibition assays [2]: 200–400 fold; Ki (NS3/4A protease D168A [3]; read-out: inhibition constant (Ki), D168A variant): 82.4 nM

Q: For Cc1cnc(C(=O)N[C@H]2CCCCC/C=C\[C@@H]3C[C@@]3(C(=O)NS(=O)(=O)C3CC3)NC(=O)[C@@H]3C[C@@H](Oc4nc5ccccc5c5ccccc45)CN3C2=O)cn1 [paritaprevir], which “difference in ΔΔG for the double mutant compared to sum of the single mutants” value (“difference in ΔΔG for the double mutant” below) [4] is on record?
A: The value was 1 to 2 kcal/mol.

Q: And the “loss in potency in enzyme inhibition assays” value [2]?
A: Its value is 8500 fold.

Q: What about the “lower potency in replicon assays” value [5] of the same compound?
A: Its value is 2941 fold.

Q: With CC(C)(C)OC(=O)N[C@H]1CCCCC/C=C\[C@@H]2C[C@@]2(C(=O)NS(=O)(=O)C2CC2)NC(=O)[C@@H]2C[C@@H](OC(=O)N3Cc4cccc(F)c4C3)CN2C1=O [danoprevir] as the compound, how does the “difference in ΔΔG for the double mutant” value [4] read?
A: Its value is ~ 0.06 kcal/mol.

Q: What about the Ki (NS3/4A protease Y56H) of the same compound?
A: Its Ki is 3 nM.

Q: And the Ki [6]?
A: Its Ki is 520 nM.

Q: What about the “additional reduction in potency with Y56H” value ([2]; Y56H/D168A relative to D168A, enzyme inhibition) of the same compound?
A: The value was 2.5 fold.

Q: And the “loss in potency in enzyme inhibition assays” value [2]?
A: Its value is 500 fold.

Q: What about the Ki (NS3/4A protease D168A [3]) of the same compound?
A: The Ki was 199 nM.

Q: What about the “potency loss in enzyme inhibition assays” value (NS3/4A protease D168A [7]) of the same compound?
A: The value was 200 fold.

Q: With C=C[C@@H]1C[C@]1(NC(=O)[C@@H]1C[C@@H]2CN1C(=O)[C@H](C(C)(C)C)NC(=O)O[C@@H]1C[C@H]1CCCCCc1nc3ccc(OC)cc3nc1O2)C(=O)NS(=O)(=O)C1CC1 [grazoprevir] as the compound, how does the “difference in ΔΔG for the double mutant” value [4] read?
A: Its value is 1 to 2 kcal/mol.

Q: And the “loss in potency in enzyme inhibition assays” value [2]?
A: The value was 2500 fold.

Q: What about the “potency loss in enzyme inhibition assays” value (NS3/4A protease D168A [7]) of the same compound?
A: Its value is greater than 200 fold.

Q: And the “potency loss in replicon assays” value [8]?
A: Its value is “over 100 fold”.

Q: And the “lower potency in replicon assays” value [5]?
A: The value was 1923 fold.
